This passage reports Kd results from patent publication US20240287138A1, “CYCLIC PEPTIDES FOR INHIBITING TNF RECEPTOR 1 ACTIVITY” (Merck Sharp & Dohme LLC, priority 2023, published 2024).

One assay deals with T1, human TNFR2 ECD protein (Homo sapiens, UniProt P20333).
T1 construct: HRV 3C protease cleavage site (C); 6His (C, cleaved yes); made in house; host or cells: Sf21 insect cells (baculovirus), secreted
T1 sequence (P20333 23-257): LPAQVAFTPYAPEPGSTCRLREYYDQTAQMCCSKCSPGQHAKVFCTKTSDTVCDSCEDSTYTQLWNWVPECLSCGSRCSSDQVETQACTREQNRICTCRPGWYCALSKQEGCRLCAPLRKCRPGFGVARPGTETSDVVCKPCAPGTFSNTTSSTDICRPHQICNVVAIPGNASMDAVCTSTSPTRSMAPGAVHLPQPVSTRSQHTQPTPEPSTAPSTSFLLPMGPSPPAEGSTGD
Nature of the assay: SPR off-target binding (selectivity) to human TNFR2 ECD. The method in brief:
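Read-out: kon, koff and derived affinity from SPR response units. Human TNFR1 and TNFR2 ECD, Avi-tag biotinylated with BirA, captured on a streptavidin surface; peptides injected under laminar flow in HEPES-saline with EDTA, P20 and 2% DMSO.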

The target in assay [1] is T2, human soluble TNFR1 (sTNFR1) (Homo sapiens, UniProt P19438).
T2 construct: made in house; host or cells: Sf21 (baculovirus)
T2 sequence (P19438 with tags, fused parts or gaps): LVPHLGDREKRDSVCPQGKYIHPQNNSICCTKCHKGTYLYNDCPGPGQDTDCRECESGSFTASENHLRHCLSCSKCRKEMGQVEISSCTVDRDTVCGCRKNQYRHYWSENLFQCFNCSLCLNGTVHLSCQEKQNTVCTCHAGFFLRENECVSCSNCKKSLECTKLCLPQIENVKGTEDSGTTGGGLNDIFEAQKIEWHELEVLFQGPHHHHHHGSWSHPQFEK
Nature of the assay: Human sTNFR1-peptide displacement assay (LanthaScreen Eu TR-FRET binding assay). The method in brief:
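Readout is the 665/615 nm TR-FRET ratio (Eu anti-His donor, streptavidin-Alexa647 acceptor), normalized to DMSO and saturating displacer, fit by Morrison-based five-parameter logistic for Kd^app. His-tagged sTNFR1 (1-211) prebound to 100 nM biotinylated peptide SEQ ID NO.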

Like-named read-outs stand apart in the source and are kept apart here. Numbered stars: 1 amine (or outer) side, 2 acyl side, 3 side chain; on linkers, the order of the positions; unused ones are H or OH. Bridge positions count the residues as written; N and C are the ends. Square brackets hold non-standard residues; d marks the D form. Peptide text beside a SMILES is read from it. * marks the point of attachment. Trp(βS-Me,7-OMe) = COc1cccc2c([C@H](C)[C@H](N)C(=O)O)c[nH]c12; Trp(1-CH2COOH) = N[C@@H](Cc1cn(CC(=O)O)c2ccccc12)C(=O)O; Phe(4-SO2NH2) = N[C@@H](Cc1ccc(S(N)(=O)=O)cc1)C(=O)O; dPro(trans-4-NMe2) = CN(C)[C@@H]1CN[C@@H](C(=O)O)C1; Trp(7-CN) = N#Cc1cccc2c(C[C@H](N)C(=O)O)c[nH]c12; Trp(7-Cl) = N[C@@H](Cc1c[nH]c2c(Cl)cccc12)C(=O)O; Phe(4-CONH2) = NC(=O)c1ccc(C[C@H](N)C(=O)O)cc1; Phe(4-COOH) = N[C@@H](Cc1ccc(C(=O)O)cc1)C(=O)O; 4Pal(3S-Me) = C[C@@H](c1ccncc1)[C@H](N)C(=O)O; X23 = N[C@@H]1CCN([*:1])[C@H](C(=O)[*:2])C1; dPro(4S-NH2) = N[C@@H]1CN[C@@H](C(=O)O)C1; Pip(5R-OH) = O=C(O)[C@@H]1CC[C@@H](O)CN1; X1 = O=C([C@@H]1CC[C@H](N[*:1])C1)[*:2]; Met(O2) = CS(=O)(=O)CC[C@H](N)C(=O)O; 4Pal = N[C@@H](Cc1ccncc1)C(=O)O; NMeE = CN[C@@H](CCC(=O)O)C(=O)O; dHyp = O=C(O)[C@H]1C[C@H](O)CN1; Ahp(2) = CCCCC[C@H](N)C(=O)O; hSer = N[C@@H](CCO)C(=O)O; αMeS = C[C@](N)(CO)C(=O)O; Carboxymethyl = O=C(O)C*; Nle = CCCC[C@H](N)C(=O)O; Sar = CNCC(=O)O

With `CCCC[C@@H]1NC(=O)[C@@H]2CC[C@@H](C2)NC(=O)[C@H]([C@@H](C)c2c[nH]c3c(OC)cccc23)NC(=O)CN(C)C(=O)[C@H](Cc2ccc(OCC(=O)O)cc2)NC(=O)[C@H](Cc2ccc(S(N)(=O)=O)cc2)NC(=O)[C@](C)(CO)NC(=O)[C@H](Cc2c[nH]c3c(C#N)cccc23)NC(=O)[C@H](Cc2ccc(OCC(=O)O)cc2)NC(=O)[C@H](CC(N)=O)NC(=O)[C@H]2C[C@H](N)CN2C(=O)[C@H](Cc2cn(CC(=O)O)c3ccccc23)NC(=O)[C@@H]2CC[C@@H](O)CN2C(=O)[C@H](Cc2ccncc2)NC1=O` [SEQ ID NO. 18] (cyclo([4Pal][Pip(5R-OH)][Trp(1-CH2COOH)][dPro(4S-NH2)]NY(Carboxymethyl)[Trp(7-CN)][αMeS][Phe(4-SO2NH2)]Y(Carboxymethyl)[Sar][Trp(βS-Me,7-OMe)][X1][Nle])), the Kd was > 1000 nM at human TNFR2 ECD protein (biotinylated human TNFR2 ECD on streptavidin chip, read-out: SPR hTNFR2 KD) and 0.08 nM in assay [1] (displacement of biotinylated peptide SEQ ID NO. 1 from sTNFR1, 20 point titration, 5-parameter fit based on Morrison equation (tight binding), read-out: TR-FRET Kd^app).

Regarding `CCCCC[C@@H]1NC(=O)[C@@H]2CC[C@@H](C2)NC(=O)[C@H]([C@@H](C)c2c[nH]c3c(OC)cccc23)NC(=O)CN(C)C(=O)[C@H](Cc2ccc(C(N)=O)cc2)NC(=O)[C@H](Cc2ccc(C(N)=O)cc2)NC(=O)[C@](C)(CO)NC(=O)[C@H](Cc2c[nH]c3c(C#N)cccc23)NC(=O)[C@H](Cc2ccc(C(=O)O)cc2)NC(=O)[C@H](CC(N)=O)NC(=O)[C@H]2C[C@H](O)CN2C(=O)[C@H](Cc2c[nH]c3ccccc23)NC(=O)[C@H](CCO)NC(=O)[C@H]([C@@H](C)c2ccncc2)NC1=O` [SEQ ID NO. 50] (cyclo([Ahp(2)][4Pal(3S-Me)][hSer]W[dHyp]N[Phe(4-COOH)][Trp(7-CN)][αMeS][Phe(4-CONH2)][Phe(4-CONH2)][Sar][Trp(βS-Me,7-OMe)][X1])), the values for the Kd (at human TNFR2 ECD protein; in assay [1]) were > 1000 nM and 0.2 nM, respectively.

Turning to `CCCCC[C@@H]1NC(=O)[C@@H]2CC[C@@H](C2)NC(=O)[C@H]([C@@H](C)c2c[nH]c3c(OC)cccc23)NC(=O)CN(C)C(=O)[C@H](Cc2ccc(C(N)=O)cc2)NC(=O)[C@H](Cc2ccc(C(N)=O)cc2)NC(=O)[C@](C)(CO)NC(=O)[C@H](Cc2c[nH]c3c(C#N)cccc23)NC(=O)[C@H](Cc2ccc(C(=O)O)cc2)NC(=O)[C@H](CC(N)=O)NC(=O)[C@H]2C[C@H](O)CN2C(=O)[C@H](Cc2c[nH]c3ccccc23)NC(=O)[C@H](CCS(C)(=O)=O)NC(=O)[C@H]([C@@H](C)c2ccncc2)NC1=O` [SEQ ID NO. 49] (cyclo([Ahp(2)][4Pal(3S-Me)][Met(O2)]W[dHyp]N[Phe(4-COOH)][Trp(7-CN)][αMeS][Phe(4-CONH2)][Phe(4-CONH2)][Sar][Trp(βS-Me,7-OMe)][X1])), the results for the Kd (at human TNFR2 ECD protein; in assay [1]) were > 1000 nM and 0.2 nM, respectively.

Take `CCCC[C@@H]1NC(=O)[C@@H]2CC[C@@H](C2)NC(=O)[C@H]([C@@H](C)c2c[nH]c3c(OC)cccc23)NC(=O)CN(C)C(=O)[C@H](Cc2ccc(C(N)=O)cc2)NC(=O)[C@H](Cc2ccc(S(N)(=O)=O)cc2)NC(=O)[C@](C)(CO)NC(=O)[C@H](Cc2c[nH]c3c(C#N)cccc23)NC(=O)[C@H](Cc2ccc(C(=O)O)cc2)NC(=O)[C@H](CC(N)=O)NC(=O)[C@H]2C[C@H](N(C)C)CN2C(=O)[C@H](Cc2cn(CC(=O)O)c3ccccc23)NC(=O)[C@@H]2CC[C@@H](O)CN2C(=O)[C@H](Cc2ccncc2)NC1=O` [SEQ ID NO. 2] (cyclo([4Pal][Pip(5R-OH)][Trp(1-CH2COOH)][dPro(trans-4-NMe2)]N[Phe(4-COOH)][Trp(7-CN)][αMeS][Phe(4-SO2NH2)][Phe(4-CONH2)][Sar][Trp(βS-Me,7-OMe)][X1][Nle])): the Kd was > 1000 nM on human TNFR2 ECD protein and 0.07 nM in assay [1].

In the case of `CCCC[C@@H]1NC(=O)CSC[C@@H](C(N)=O)NC(=O)[C@H]([C@@H](C)c2c[nH]c3c(OC)cccc23)NC(=O)CN(C)C(=O)[C@H](Cc2ccc(O)cc2)NC(=O)[C@H](Cc2ccc(C(=O)O)cc2)NC(=O)[C@](C)(CO)NC(=O)[C@H](Cc2c[nH]c3c(Cl)cccc23)NC(=O)[C@H](Cc2ccncc2)NC(=O)[C@H](CC(N)=O)NC(=O)[C@H](CCC(=O)O)N(C)C(=O)[C@H](Cc2c[nH]c3ccccc23)NC(=O)[C@@H]2C[C@H](N)CCN2C(=O)[C@H](Cc2ccncc2)NC1=O` [SEQ ID NO. 271] ({CH2CO}-[Nle][4Pal][X23]W[NMeE]N[4Pal][Trp(7-Cl)][αMeS][Phe(4-COOH)]Y[Sar][Trp(βS-Me,7-OMe)]C-NH2; thioether N-14), the Kd was > 1000 nM at human TNFR2 ECD protein and 0.95 nM in assay [1].
